Tests used:
C57B16 mice = assay: Schlemm's canal area in mice (PECAM-1 staining); type: in vivo, mouse; conditions: 4% eye drops (5 μL) BID for 4 weeks, 4-week old mice
Procedure: Prior to application of eye drops, mice were anaesthetized using an isoflurane evaporator. Whole mounts of corneas were stained for PECAM-1 (FIG. 6A) and SC areas were measured (FIG. 6B). As depicted in FIG. 6A, 20× fields shown represent an area of […]. Images were captured as Z stacks with a step size of 0.89 μm and a pinhole of 1 airy unit, and are shown as maximum intensity projections. For quantification (FIG. 6B), SC area was measured in sixteen 20× images per condition for 4 eyes of 2 mice; *p≤0.05. Treatment with Compound 1 enhanced SC area by about 12.2% (±4.7%; p=0.022) with topical ocular Compound 1 treatment compared to vehicle.

[1] = test system: ocular normotensive human patients with diabetic eye disease; assay: Phase 2 trial: IOP after subcutaneous Compound 1 alone or with intravitreal ranibizumab, diabetic macular edema; type: in vivo; conditions: for Week 4 subject-level IOP change from BL, mean (SD) / Week 4 subject-level IOP, mean (SD) / Week 8 subject-level IOP change from BL, mean (SD) / Week 8 subject-level IOP, mean (SD) / Week 12 subject-level IOP change from BL, mean (SD) / Week 12 subject-level IOP, mean (SD): average of study eye and fellow eye
Procedure: IOP in patients were measured using a double-masked, parallel-group designed to assess the effects of subcutaneous (SC) Compound 1 (sodium salt) alone, or as an adjunct to intravitreal ranibizumab trial. 144 human subjects with diabetic retinopathy complicated by center-involved diabetic macular edema (DME) were randomized to 3 months of one of 3 treatments: 1) Compound 1 (15 mg) SC twice daily (BID) plus sham monthly intravitreal injection (IVT); 2) Compound 1 SC BID plus ranibizumab (0.3 mg) monthly IVT; and 3) Placebo SC BID+ranibizumab IVT. At baseline, mean age was 61.3±1.3 years; 59% of subjects were male; 82.6% had Type 2 diabetes; mean HBA1c was 7.5%±1.3%; mean best corrected visual acuity was 60.2 ETDRS letters (Snellen 20/63); and mean IOP was 15.7 mmHg±3.4. Ophthalmic safety assessments were performed at baseline and monthly during the 3-month treatment period including a single IOP measurement by applanation tonometry in both the study eye and the fellow eye at each time point. By protocol, all patients had baseline IOP<24 mmHg (ocular normotensive).
In the pre-specified safety analysis, change from baseline IOP was analyzed using a t-test (null hypothesis 0 change from baseline). The level of significance was set at 0.05. A post hoc analysis of the subject level IOP measure was the change from baseline in the average over both eyes within a subject for each timepoint. Statistical testing of each timepoint was completed using ANCOVA with baseline IOP (averaged over both eyes within a subject) as covariate. Additionally, statistical testing averaging across all timepoints was completed using a mixed-model repeated measures ANCOVA. The level of significance was set at 0.05.

C57 mice = assay: IOP in mice after once daily topical dosing (rebound tonometry); type: in vivo, mouse
Procedure: Mice were handled in accordance with acceptable animal care and use guidelines. C57BL/6 (C57) mice were bred/housed in clear cages and kept in housing rooms at 21° C. with a 12 h: 12 h light-dark cycle. Mice were examined at ages between 4 to 6 months old.
Each animal was randomly assigned to receive one masked treatment (eye drops, 4% Compound 1 or vehicle) in one eye and the other masked treatment in the contralateral eye once daily for three consecutive days. IOPs of both eyes were measured prior to eye drop administration using rebound tonometry between 11 am and 1 pm daily. After collecting IOP measurements on the third day, a final drop of Compound 1 or placebo was administered and TOP was measured again 2 and 4 hours later. For TOP measurements, mice were anesthetized with ketamine (60 mg/kg) and xylazine (6 mg/kg). TOP was immediately measured as the mice stopped moving, while drifting into light sleep, but before becoming anesthetized. Each TOP measurement that was recorded was a result of an average of six independent measurements per time point, giving a total of […] measurements from the same eye.

[2] = test system: ocular normotensive New Zealand White rabbits; assay: IOP in ocular normotensive rabbits, topical ocular or subcutaneous Compound 1; type: in vivo, rabbit
Procedure: To examine the effect of Compound 1 on IOP, Compound 1 was delivered either by subcutaneous injection, or by topical drops to ocular normotensive New Zealand White rabbits, and IOP was followed over time (FIGS. 3A-3C). For this study, 25 female New Zealand White rabbits were administered the sodium salt of Compound 1 for seven days QD or BID topically (30 μL drop) into both eyes, or twice daily subcutaneously, or vehicle twice daily topically into both eyes. Eye drops (4% Compound 1 or vehicle) were administered, with study staff masked to treatment. Five dose groups (5 rabbits per group) were tested: 1) vehicle control—15% HPβCD (+1% dextrose); 2) 1.5% (15 mg/mL) Compound 1 BID; 3) 4% (40 mg/mL) Compound 1 BID; 4) 4% (40 mg/mL) Compound 1 QD; and 5) 10 mg/kg (40 mg/mL) Compound 1 administered subcutaneously BID. IOP measurements were performed at baseline (prior to the start of dosing), and once daily on days 2-8. Prior to performing IOP measurements, 1 to 2 drops of a 0.5% proparacaine solution were applied to the eye as a topical anesthetic. IOP measurements were performed with a pneumotonometer 2 hours after morning dosing. The only exceptions were Day 8 measurements, which were performed 24 hours after the final dose. IOP data were analyzed using a mixed-design two-factor ANOVA, with time as the within-subjects factor and treatment as the between-subjects factor. IOP values for Day 7 and Day 8 were analyzed using one-way ANOVA. The change from baseline IOP on Day 7 and on Day 8 was calculated for each animal, and the resulting values were analyzed using one-way ANOVA. Area under the curve (AUC) was calculated for all morning IOP measurements throughout the study for each group; AUC values for the different groups were analyzed using one-way ANOVA. Where appropriate, post hoc testing was performed using Tukey's multiple comparisons tests. The level of significance was set at 0.05.

[3] = test system: New Zealand White rabbits; assay: Local tolerance in rabbits (slit lamp biomicroscopy, McDonald-Shadduck scoring); type: in vivo, rabbit; conditions: slit lamp biomicroscopy during the study
[4] = week 12, listed as All Compound 1
[5] = week 12, listed as Compound 1 + Sham
[6] = 10 mg/kg BID subcutaneous injection

In the case of `COC(=O)N[C@@H](Cc1ccccc1)C(=O)N[C@@H](Cc1ccc(NS(=O)(=O)O)cc1)c1csc(-c2cccs2)n1` [Compound 1, 4-{(S)-2-[(S)-2-(Methoxycarbonylamino)-3-phenylpropanamido]-2-[2-(thiophen-2-yl)thiazol-4-yl]ethyl}phenylsulfamic acid], the “enhancement of Schlemm's canal area compared to vehicle” value (C57B16 mice) is reported as “about 12.2%”, the “Week 4 subject-level IOP change from BL, mean (SD)” value ([1]; listed as All Compound 1) is reported as −1.2 (2.92) mmHg and the “Week 4 subject-level IOP, mean (SD)” value ([1]; listed as All Compound 1) is reported as 14.5 (2.92) mmHg. For the same compound, the “Week 4 subject-level IOP change from BL, mean (SD)” value ([1]; listed as Compound 1 + Sham) was −0.8 (3.14) mmHg, the “Week 4 subject-level IOP, mean (SD)” value ([1]; listed as Compound 1 + Sham) was 14.7 (2.88) mmHg and the “Week 8 subject-level IOP change from BL, mean (SD)” value ([1]; listed as All Compound 1) was −1.3 (3.17) mmHg. For the same compound, the “Week 8 subject-level IOP, mean (SD)” value ([1]; listed as All Compound 1) was 14.5 (3.31) mmHg, the “Week 8 subject-level IOP change from BL, mean (SD)” value ([1]; listed as Compound 1 + Sham) was −1.1 (3.25) mmHg and the “Week 8 subject-level IOP, mean (SD)” value ([1]; listed as Compound 1 + Sham) was 14.4 (3.26) mmHg. The “Week 12 subject-level IOP change from BL, mean (SD)” value [1, 4] was −1.3 (2.93) mmHg, the “Week 12 subject-level IOP, mean (SD)” value [1, 4] was 14.5 (3.31) mmHg and the “Week 12 subject-level IOP change from BL, mean (SD)” value [1, 5] was −1.4 (2.98) mmHg. The “Week 12 subject-level IOP, mean (SD)” value [1, 5] was 14.1 (3.36) mmHg, the “Week 4 IOP change from BL, mean (SD)” value ([1]; fellow eye (FE)) was −0.8 (3.36) mmHg and the “Week 8 IOP change from BL, mean (SD)” value ([1]; fellow eye (FE)) was −1.1 (3.58) mmHg. The “Week 12 IOP change from BL, mean (SD)” value ([1]; fellow eye (FE), week 12) was −1.4 (3.29) mmHg, the “Week 12 IOP, mean (SD)” value ([1]; fellow eye (FE), week 12) was 14.0 (3.41) mmHg and the “Week 4 IOP change from BL, mean (SD)” value ([1]; study eye (SE)) was −0.8 (3.34) mmHg. For the same compound, the “Week 8 IOP change from BL, mean (SD)” value ([1]; study eye (SE)) was −1.1 (3.37) mmHg, the “Week 12 IOP change from BL, mean (SD)” value ([1]; study eye (SE), week 12) was −1.4 (3.16) mmHg and the “decrease of IOP” value (C57 mice; 4% topical QD, Day 3, 2 and 4 hours after treatment) was about 30%. For the same compound, the “change in IOP relative to Day 0, mean±standard error” value (C57 mice; 4% topical QD, just prior to dosing on Day 1) was −0.74±0.43 mmHg, the “change in IOP relative to Day 0, mean±standard error” value (C57 mice; 4% topical QD, just prior to dosing on Day 2) was −1.00±0.27 mmHg and the “change in IOP relative to Day 0, mean±standard error” value (C57 mice; 4% topical QD, prior to dosing on Day 3) was −1.6±0.3 mmHg. The “change in IOP compared to both Day 0 pretreatment and placebo treatment, mean±SE” value (C57 mice; Day 3, 2 hours after treatment) was −3.85±1.1 mmHg, the “change in IOP compared to only placebo-treated eyes, mean±SE” value (C57 mice; Day 3, 2 hours after treatment) was −5.66±1.0 mmHg and the “change in IOP compared to both Day 0 pretreatment and placebo treatment, mean±SE” value (C57 mice; Day 3, 4 hours after treatment) was −3.1±0.6 mmHg. The “change in IOP compared to only placebo-treated eyes, mean±SE” value (C57 mice; Day 3, 4 hours after treatment) was −4.87±0.75 mmHg, the “IOP-lowering effect on the last day of dosing (Day 7)” value [2, 6] was “the effect did not persist” and the “IOP-lowering effect relative to vehicle control on Days 3 and 4” value [2, 6] was “significant maximum IOP-lowering effect”. For the same compound, the “area under the curve for IOP values over 7 days versus vehicle, 1.5% TO BID or 10 mg/kg SC BID” value ([2]; 4% topical ocular QD or BID) was “statistically-significantly lower”, the “time to steady-state effect on IOP” value ([2]; daily topical ocular dosing of 4.0%) was “steady-state effect on IOP was observed by Day 3” and the “IOP reduction, topical ocular versus subcutaneous administration” value ([2]; rabbits) was “larger with topical ocular administration than with subcutaneous administration”. The “IOP-lowering effect versus vehicle control or 1.5% Compound 1 BID” value ([2]; topical ocular 4% QD and BID, 7 days) was “significantly larger IOP-lowering effect”, the “IOP on Day 8, 24 hours after the last dose” value ([2]; two high-dose (4%) topical ocular groups) was “significant reduction in IOP persisted on Day 8” and the “adverse effects on local tolerance” value [3] was “No adverse effects”.
